Reference: ChEMBL document CHEMBL1155810, “Synthesis, structure-activity relationships, and biological profiles of a quinazolinone class of histamine H3 receptor inverse agonists” (J Med Chem, 2008)
Values belong to the molecule of their own block, whether it stands above or below them. Calls of active or inactive are those of the source. The calls are words filed in the database; no cut-off is given here.

Key:
Histamine H3 receptor [1] = molecular target: Histamine H3 receptor (Homo sapiens, UniProt Q9Y5N1); experiment: Inverse agonist activity at human histamine H3 receptor expressed in CHO-K1 cells assessed as inhibition of N-alpha-methylhistamine-induced [35S]GTPgammaS binding; type: functional, cell-based
[2] = molecular target: Voltage-gated inwardly rectifying potassium channel KCNH2 (Homo sapiens, UniProt Q12809)
Cytochrome P450 2C19 = Cytochrome P450 2C19 (Homo sapiens, UniProt P33261); experiment: Inhibition of CYP2C19; type: ADME
[3] = AUC (0 to infinity) in Beagle dog at 3 mg/kg, po; type: ADME, organism-based, Canis lupus familiaris; parameters: time infinity, dose 3 mg/kg, route oral; details: plasma
Histamine receptor H3 = Histamine receptor H3 (Macaca mulatta, UniProt Q865E1); experiment: Displacement of [3H]N-alpha-methylhistamine from rhesus monkey histamine H3 receptor expressed in HEK293T cells; type: cell-based, HEK-293T
[4] = Cmax in Beagle dog at 3 mg/kg, po; type: ADME, organism-based, Canis lupus familiaris; parameters: dose 3 mg/kg, route oral; details: in vivo
Mus musculus [5] = species on record: Mus musculus; experiment: Ex vivo receptor occupancy of […] histamine H3 receptor in MDR1a-deficient CF1 mouse plasma; type: functional
[6] = Cmax in Sprague-Dawley rat at 3 mg/kg, po; type: ADME, organism-based; parameters: dose 3 mg/kg, route oral; details: in vivo
Rattus norvegicus [7] = experiment: Ex vivo increase in receptor occupancy of histamine H3 receptor in Sprague-Dawley rat brain at 30 mg/kg, po by autoradiography; type: functional
Histamine H4 receptor = Histamine H4 receptor (Homo sapiens, UniProt Q9H3N8); experiment: Inhibition of human histamine H4 receptor
Cytochrome P450 2A6 = molecular target: T1, Cytochrome P450 2A6 (Homo sapiens, UniProt P11509); experiment: Inhibition of CYP2A6; type: ADME
T1 sequence (P11509 whole entry): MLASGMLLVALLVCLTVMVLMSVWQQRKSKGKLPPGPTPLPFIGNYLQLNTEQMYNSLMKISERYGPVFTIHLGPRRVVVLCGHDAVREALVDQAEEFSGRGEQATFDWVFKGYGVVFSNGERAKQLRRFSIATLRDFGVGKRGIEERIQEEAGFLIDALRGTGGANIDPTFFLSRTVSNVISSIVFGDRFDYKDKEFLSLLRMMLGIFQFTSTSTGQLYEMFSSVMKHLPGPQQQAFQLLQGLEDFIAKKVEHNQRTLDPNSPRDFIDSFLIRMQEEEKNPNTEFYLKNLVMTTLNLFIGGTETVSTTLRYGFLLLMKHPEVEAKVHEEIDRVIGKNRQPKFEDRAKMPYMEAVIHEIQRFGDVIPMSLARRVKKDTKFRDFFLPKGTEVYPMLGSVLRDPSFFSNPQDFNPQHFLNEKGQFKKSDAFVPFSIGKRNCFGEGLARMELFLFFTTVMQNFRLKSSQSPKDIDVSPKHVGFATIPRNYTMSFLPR

Histamine H3 receptor [8] = molecular target: Histamine H3 receptor (Rattus norvegicus, UniProt Q9QYN8); experiment: Displacement of [3H]N-alpha-methylhistamine from rat histamine H3 receptor expressed in HEK293 cells coexpressed with CRE-beta-lactamase; type: cell-based
Cytochrome P450 1A2 = molecular target: T2, Cytochrome P450 1A2 (Homo sapiens, UniProt P05177); experiment: Inhibition of CYP1A2; type: ADME
T2 sequence (P05177 whole entry): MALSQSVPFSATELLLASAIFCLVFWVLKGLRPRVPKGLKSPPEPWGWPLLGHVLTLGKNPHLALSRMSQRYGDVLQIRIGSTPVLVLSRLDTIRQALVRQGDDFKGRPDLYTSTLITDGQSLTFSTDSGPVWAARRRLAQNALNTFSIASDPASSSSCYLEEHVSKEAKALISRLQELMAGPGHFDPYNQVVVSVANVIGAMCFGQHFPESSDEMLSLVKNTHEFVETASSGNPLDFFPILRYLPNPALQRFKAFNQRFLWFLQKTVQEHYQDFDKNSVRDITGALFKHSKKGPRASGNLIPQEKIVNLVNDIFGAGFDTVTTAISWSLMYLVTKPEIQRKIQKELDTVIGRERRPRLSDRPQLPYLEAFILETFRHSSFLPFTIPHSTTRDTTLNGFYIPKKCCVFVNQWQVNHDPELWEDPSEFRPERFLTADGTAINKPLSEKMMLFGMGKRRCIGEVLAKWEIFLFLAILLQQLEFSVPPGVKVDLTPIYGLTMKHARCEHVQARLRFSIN

[9] = Ratio of drug level in Sprague-Dawley rat brain to plasma; type: ADME; details: read-out: BPR
[10] = Oral bioavailability in rhesus monkey at 3 mg/kg; type: ADME, organism-based, Macaca mulatta; details: in vivo
[11] = Oral bioavailability in Beagle dog at 3 mg/kg; type: ADME, organism-based, Canis lupus familiaris; details: in vivo
[12] = Oral bioavailability in Sprague-Dawley rat at 3 mg/kg; type: ADME, organism-based; details: in vivo
[13] = Ratio of drug level in wild type MDR1a-proficient CF1 mouse brain to plasma at 10 mg/kg, po after 2 hrs; type: ADME, organism-based; parameters: dose 10 mg/kg, route oral; details: read-out: BPR
Cytochrome P450 2D6 = Cytochrome P450 2D6 (Homo sapiens, UniProt P10635); experiment: Inhibition of CYP2D6; type: ADME
[14] = Half life in rhesus monkey at 1 mg/kg, iv; type: ADME, organism-based, Macaca mulatta; parameters: dose 1 mg/kg, route intravenous; details: in vivo
[15] = Plasma clearance in rhesus monkey at 1 mg/kg, iv; type: ADME, organism-based, Macaca mulatta; parameters: dose 1 mg/kg, route intravenous
[16] = Half life in Beagle dog at 1 mg/kg, iv; type: ADME, organism-based, Canis lupus familiaris; parameters: dose 1 mg/kg, route intravenous; details: in vivo
Histamine H1 receptor = Histamine H1 receptor (Homo sapiens, UniProt P35367); experiment: Inhibition of human histamine H1 receptor
Mus musculus [17] = species on record: Mus musculus; experiment: Ex vivo receptor occupancy of […] histamine H3 receptor in wild type MDR1a-proficient CF1 mouse plasma; type: functional
[18] = Half life in Sprague-Dawley rat at 1 mg/kg, iv; type: ADME, organism-based; parameters: dose 1 mg/kg, route intravenous; details: in vivo
[19] = Cmax in rhesus monkey at 3 mg/kg, po; type: ADME, organism-based, Macaca mulatta; parameters: dose 3 mg/kg, route oral; details: in vivo
[20] = AUC (0 to infinity) in Sprague-Dawley rat at 3 mg/kg, po; type: ADME, organism-based; parameters: time infinity, dose 3 mg/kg, route oral; details: plasma
Cytochrome P450 2C9 = Cytochrome P450 2C9 (Homo sapiens, UniProt P11712); experiment: Inhibition of CYP2C9; type: ADME
[21] = Volume of distribution at steady state in Beagle dog at 1 mg/kg, iv; type: ADME, organism-based, Canis lupus familiaris; parameters: dose 1 mg/kg, route intravenous; details: in vivo, read-out: Vdss
[22] = Plasma clearance in Sprague-Dawley rat at 1 mg/kg, iv; type: ADME, organism-based; parameters: dose 1 mg/kg, route intravenous
[23] = Volume of distribution at steady state in Sprague-Dawley rat at 1 mg/kg, iv; type: ADME, organism-based; parameters: dose 1 mg/kg, route intravenous; details: in vivo, read-out: Vdss
[24] = Ratio of drug level in MDR1a-deficient CF1 mouse brain to plasma at 10 mg/kg, po after 2 hrs; type: ADME, organism-based; parameters: dose 10 mg/kg, route oral; details: read-out: BPR
Cytochrome P450 3A4 = Cytochrome P450 3A4 (Homo sapiens, UniProt P08684); experiment: Inhibition of CYP3A4; type: ADME
[25] = AUC (0 to infinity) in rhesus monkey at 3 mg/kg, po; type: ADME, organism-based, Macaca mulatta; parameters: time infinity, dose 3 mg/kg, route oral; details: plasma
Brain = experiment: Drug level in Sprague-Dawley rat brain at 10 mg/kg, po after 2 hrs; type: ADME, organism-based; parameters: dose 10 mg/kg, route oral; details: in vivo
Mus musculus [26] = species on record: Mus musculus; experiment: Ex vivo receptor occupancy of […] histamine H3 receptor in wild type MDR1a-proficient CF1 mouse brain; type: functional
Rattus norvegicus [27] = experiment: Effect on histamine release in Sprague-Dawley rat brain assessed as increase in tele-methylhistamine level at 30 mg/kg, po after 2 hrs; type: functional, organism-based; parameters: dose 30 mg/kg
[28] = Volume of distribution at steady state in rhesus monkey at 1 mg/kg, iv; type: ADME, organism-based, Macaca mulatta; parameters: dose 1 mg/kg, route intravenous; details: in vivo, read-out: Vdss
Mus musculus [29] = species on record: Mus musculus; experiment: Ex vivo receptor occupancy of […] histamine H3 receptor in MDR1a-deficient CF1 mouse brain; type: functional
Histamine H2 receptor = Histamine H2 receptor (Homo sapiens, UniProt P25021); experiment: Inhibition of human histamine H2 receptor
[30] = Plasma clearance in Beagle dog at 1 mg/kg, iv; type: ADME, organism-based, Canis lupus familiaris; parameters: dose 1 mg/kg, route intravenous
[31] = Plasma concentration in Sprague-Dawley rat at 10 mg/kg, po after 2 hrs; type: ADME, organism-based; parameters: dose 10 mg/kg, route oral

Sequence of Histamine H3 receptor (Homo sapiens, UniProt Q9Y5N1) (Q9Y5N1 whole entry): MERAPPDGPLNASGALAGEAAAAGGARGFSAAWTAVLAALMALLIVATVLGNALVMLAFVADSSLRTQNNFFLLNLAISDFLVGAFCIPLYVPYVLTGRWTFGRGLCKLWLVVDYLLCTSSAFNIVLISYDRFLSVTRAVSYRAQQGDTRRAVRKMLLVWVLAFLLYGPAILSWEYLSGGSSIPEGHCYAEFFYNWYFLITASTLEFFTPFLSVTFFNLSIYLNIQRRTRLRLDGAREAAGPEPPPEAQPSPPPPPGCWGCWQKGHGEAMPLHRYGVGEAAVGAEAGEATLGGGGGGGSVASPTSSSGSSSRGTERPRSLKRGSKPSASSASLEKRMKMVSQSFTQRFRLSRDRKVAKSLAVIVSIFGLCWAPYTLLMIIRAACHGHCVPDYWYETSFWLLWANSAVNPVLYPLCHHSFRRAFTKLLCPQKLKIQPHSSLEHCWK
Sequence of Voltage-gated inwardly rectifying potassium channel KCNH2 (Q12809 whole entry): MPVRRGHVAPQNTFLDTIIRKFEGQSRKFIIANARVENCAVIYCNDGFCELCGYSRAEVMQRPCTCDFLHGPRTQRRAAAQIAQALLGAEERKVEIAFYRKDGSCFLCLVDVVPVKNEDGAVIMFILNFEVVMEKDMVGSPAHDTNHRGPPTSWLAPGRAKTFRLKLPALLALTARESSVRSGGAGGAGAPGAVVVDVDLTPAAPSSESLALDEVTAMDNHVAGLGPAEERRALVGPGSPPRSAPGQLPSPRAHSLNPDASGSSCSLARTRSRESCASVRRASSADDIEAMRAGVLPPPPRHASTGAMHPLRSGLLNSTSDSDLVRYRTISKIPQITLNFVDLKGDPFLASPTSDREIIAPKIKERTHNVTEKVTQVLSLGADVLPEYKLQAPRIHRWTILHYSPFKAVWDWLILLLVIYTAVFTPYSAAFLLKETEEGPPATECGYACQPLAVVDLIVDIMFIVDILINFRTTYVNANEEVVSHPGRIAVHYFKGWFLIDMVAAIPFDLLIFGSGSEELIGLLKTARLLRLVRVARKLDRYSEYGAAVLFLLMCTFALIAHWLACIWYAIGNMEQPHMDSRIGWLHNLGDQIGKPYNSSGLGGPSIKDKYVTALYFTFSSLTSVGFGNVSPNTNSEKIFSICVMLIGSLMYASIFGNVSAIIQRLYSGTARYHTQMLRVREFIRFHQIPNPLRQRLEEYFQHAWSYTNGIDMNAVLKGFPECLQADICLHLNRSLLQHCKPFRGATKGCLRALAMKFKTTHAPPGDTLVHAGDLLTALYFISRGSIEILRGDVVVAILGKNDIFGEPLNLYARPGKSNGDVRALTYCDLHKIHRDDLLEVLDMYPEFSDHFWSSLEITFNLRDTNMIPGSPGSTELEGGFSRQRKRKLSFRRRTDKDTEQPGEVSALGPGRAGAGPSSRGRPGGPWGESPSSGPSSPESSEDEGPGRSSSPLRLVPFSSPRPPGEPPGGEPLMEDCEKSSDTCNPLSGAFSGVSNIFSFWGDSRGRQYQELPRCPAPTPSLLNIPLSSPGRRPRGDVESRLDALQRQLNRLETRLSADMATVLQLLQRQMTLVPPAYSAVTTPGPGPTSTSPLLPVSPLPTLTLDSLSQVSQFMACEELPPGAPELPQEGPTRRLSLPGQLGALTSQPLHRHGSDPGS
Sequence of Histamine H1 receptor (P35367 whole entry): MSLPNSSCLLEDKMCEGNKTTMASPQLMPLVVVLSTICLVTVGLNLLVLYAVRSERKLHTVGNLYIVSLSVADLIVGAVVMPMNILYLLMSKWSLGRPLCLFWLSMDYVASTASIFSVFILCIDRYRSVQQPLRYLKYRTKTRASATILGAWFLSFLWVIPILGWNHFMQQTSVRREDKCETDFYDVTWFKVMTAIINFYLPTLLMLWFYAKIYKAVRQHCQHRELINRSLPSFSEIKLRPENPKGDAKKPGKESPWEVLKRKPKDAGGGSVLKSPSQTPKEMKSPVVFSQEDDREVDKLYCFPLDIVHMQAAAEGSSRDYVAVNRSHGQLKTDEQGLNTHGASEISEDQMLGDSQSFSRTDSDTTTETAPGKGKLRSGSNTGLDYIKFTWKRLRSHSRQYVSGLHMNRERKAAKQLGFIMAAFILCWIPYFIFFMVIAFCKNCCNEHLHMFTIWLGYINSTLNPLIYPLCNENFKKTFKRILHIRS
Sequence of Cytochrome P450 3A4 (P08684 whole entry): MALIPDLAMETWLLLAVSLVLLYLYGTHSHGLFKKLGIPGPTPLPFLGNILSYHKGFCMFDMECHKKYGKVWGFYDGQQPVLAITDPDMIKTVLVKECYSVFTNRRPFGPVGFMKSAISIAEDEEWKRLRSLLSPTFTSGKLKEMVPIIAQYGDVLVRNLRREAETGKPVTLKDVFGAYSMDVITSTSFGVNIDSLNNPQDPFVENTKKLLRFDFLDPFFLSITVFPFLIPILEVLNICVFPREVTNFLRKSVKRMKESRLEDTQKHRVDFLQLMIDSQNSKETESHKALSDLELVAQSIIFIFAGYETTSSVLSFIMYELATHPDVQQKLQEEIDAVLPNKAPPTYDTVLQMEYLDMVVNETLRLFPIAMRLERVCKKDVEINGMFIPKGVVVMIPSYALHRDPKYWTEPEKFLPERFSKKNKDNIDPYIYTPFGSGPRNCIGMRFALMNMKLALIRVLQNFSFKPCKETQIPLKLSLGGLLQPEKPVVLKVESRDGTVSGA
Sequence of Cytochrome P450 2C9 (P11712 whole entry): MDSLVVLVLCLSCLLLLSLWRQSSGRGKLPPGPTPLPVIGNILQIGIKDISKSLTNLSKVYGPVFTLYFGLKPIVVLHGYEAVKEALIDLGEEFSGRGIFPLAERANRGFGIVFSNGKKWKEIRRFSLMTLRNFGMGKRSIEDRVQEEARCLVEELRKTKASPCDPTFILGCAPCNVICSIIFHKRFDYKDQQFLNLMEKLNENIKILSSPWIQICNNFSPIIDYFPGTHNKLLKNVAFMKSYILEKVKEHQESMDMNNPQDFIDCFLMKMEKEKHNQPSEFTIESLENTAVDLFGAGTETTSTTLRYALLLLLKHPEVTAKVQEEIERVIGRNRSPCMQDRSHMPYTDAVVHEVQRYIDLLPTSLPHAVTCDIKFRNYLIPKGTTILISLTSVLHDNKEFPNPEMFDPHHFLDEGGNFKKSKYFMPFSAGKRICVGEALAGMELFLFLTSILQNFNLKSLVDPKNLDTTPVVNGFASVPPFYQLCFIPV
Sequence of Cytochrome P450 2C19 (P33261 whole entry): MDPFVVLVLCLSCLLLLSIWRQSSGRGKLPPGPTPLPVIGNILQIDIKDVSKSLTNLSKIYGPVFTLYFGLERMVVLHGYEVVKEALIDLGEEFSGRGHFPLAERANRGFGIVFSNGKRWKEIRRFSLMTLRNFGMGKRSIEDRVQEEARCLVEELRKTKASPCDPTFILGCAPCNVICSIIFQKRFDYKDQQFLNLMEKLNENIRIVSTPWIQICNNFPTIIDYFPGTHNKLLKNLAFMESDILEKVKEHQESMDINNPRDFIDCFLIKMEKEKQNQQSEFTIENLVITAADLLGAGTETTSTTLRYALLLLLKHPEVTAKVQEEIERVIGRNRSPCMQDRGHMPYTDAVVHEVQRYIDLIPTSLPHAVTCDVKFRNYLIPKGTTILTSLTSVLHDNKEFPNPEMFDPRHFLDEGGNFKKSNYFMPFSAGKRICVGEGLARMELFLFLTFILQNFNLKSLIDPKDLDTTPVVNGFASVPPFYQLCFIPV
Sequence of Histamine H3 receptor (Rattus norvegicus, UniProt Q9QYN8) (Q9QYN8 whole entry): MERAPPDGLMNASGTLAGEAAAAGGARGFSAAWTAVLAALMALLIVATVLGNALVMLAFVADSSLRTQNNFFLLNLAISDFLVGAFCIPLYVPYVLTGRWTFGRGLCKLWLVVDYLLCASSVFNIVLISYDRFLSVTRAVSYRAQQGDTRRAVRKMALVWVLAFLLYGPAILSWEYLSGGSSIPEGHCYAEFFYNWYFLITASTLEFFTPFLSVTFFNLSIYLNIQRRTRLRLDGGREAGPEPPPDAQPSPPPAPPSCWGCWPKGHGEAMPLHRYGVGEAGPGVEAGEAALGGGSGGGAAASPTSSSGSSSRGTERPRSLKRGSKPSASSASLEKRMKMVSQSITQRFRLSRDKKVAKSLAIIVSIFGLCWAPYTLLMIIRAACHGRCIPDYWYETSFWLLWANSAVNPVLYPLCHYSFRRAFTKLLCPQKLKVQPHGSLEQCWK
Sequence of Cytochrome P450 2D6 (P10635 whole entry): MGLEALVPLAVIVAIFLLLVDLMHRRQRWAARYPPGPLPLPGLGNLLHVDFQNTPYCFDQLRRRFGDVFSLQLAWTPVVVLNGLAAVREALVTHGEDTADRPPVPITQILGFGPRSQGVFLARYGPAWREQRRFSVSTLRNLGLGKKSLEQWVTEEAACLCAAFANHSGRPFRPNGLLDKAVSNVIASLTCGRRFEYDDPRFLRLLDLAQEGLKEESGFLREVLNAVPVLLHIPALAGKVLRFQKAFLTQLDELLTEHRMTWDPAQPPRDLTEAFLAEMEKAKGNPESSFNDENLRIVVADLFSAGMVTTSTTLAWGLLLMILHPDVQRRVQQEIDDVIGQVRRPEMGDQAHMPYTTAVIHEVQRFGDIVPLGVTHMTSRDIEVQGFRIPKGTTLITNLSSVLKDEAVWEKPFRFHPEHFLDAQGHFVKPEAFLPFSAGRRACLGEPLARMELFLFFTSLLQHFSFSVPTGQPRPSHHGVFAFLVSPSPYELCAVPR
Sequence of Histamine H2 receptor (P25021 whole entry): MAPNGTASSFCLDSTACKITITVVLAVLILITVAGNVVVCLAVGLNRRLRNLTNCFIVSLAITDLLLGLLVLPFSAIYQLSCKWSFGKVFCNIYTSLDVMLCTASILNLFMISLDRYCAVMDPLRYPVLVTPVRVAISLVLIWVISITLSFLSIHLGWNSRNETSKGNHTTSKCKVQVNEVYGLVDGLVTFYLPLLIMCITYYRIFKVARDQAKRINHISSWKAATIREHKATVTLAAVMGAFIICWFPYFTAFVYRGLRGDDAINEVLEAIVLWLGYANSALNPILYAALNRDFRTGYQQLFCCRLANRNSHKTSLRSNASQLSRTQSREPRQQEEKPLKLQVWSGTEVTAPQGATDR
Sequence of Histamine receptor H3 (Q865E1 whole entry): as the sequence (Q9Y5N1 whole entry) above, with D148N, A240G, V282A, A289T, T290A, V300A, H442Q counted along it

SMILES: Cc1nc2ccccc2c(=O)n1-c1ccc(OCCCN2[C@H](C)CC[C@H]2C)cc1
IC50 (Histamine H3 receptor [1]): 20 nM

SMILES: Cc1nc2ccccc2c(=O)n1-c1ccc(OCCCN2CC(C)CC(C)C2)cc1 (configuration not stated)
IC50 (Histamine H3 receptor [1]): 28 nM

SMILES: Cc1nc2ccccc2c(=O)n1-c1ccc(OCCCN2CCCCCC2)cc1
IC50 (Histamine H3 receptor [1]): 1.6 nM

SMILES: Cc1nc2ccccc2c(=O)n1-c1ccc(OCCCN2CCC(C)CC2)cc1
IC50 (Histamine H3 receptor [1]): 23 nM

SMILES: Cc1nc2ccccc2c(=O)n1-c1ccc(OCCCN2CCCCCCC2)cc1
IC50 (Histamine H3 receptor [1]): 10 nM

SMILES: Cc1nc2ccccc2c(=O)n1-c1ccc(OCCCN2CCCCC2C)cc1 (configuration not stated)
IC50 (Histamine H3 receptor [1]): 11 nM

SMILES: Cc1nc2ccccc2c(=O)n1-c1ccc(OCCCN2CCC[C@@H](C)C2)cc1
IC50 (Histamine H3 receptor [1]): 41 nM

SMILES: CCN(CC)CCCOc1ccc(-n2c(C)nc3ccccc3c2=O)cc1
IC50 (Histamine H3 receptor [1]): 33 nM

SMILES: Cc1nc2cccc(C(F)(F)F)c2c(=O)n1-c1ccc(OCCCN2CCCC2)cc1 [MK-0249]
IC50 (Cytochrome P450 2C19): > 27 µM
AUC(0-inf) [3]: 11.8 µM·h
Ki (Histamine receptor H3): 4.3 nM
Cmax [4]: 1800 nM
Occ90 (Mus musculus [5]): 40 nM
Cmax [6]: 1010 nM
Activity (Rattus norvegicus [7]): >90%
IC50 (Histamine H4 receptor): > 10 µM
IC50 (Cytochrome P450 2A6): > 27 µM
Ki (Histamine H3 receptor [8]): 33 nM
IC50 (Cytochrome P450 1A2): > 27 µM
Kp [9]: 1.1
bioavailability [10]: 28%
bioavailability [11]: > 100%
bioavailability [12]: 65%
Kp at 2 h [13]: 0.8
IC50 (Cytochrome P450 2D6): > 27 µM
half-life [14]: 324 min
clearance [15]: 18 mL/min/kg
half-life [16]: 594 min
IC50 (Histamine H1 receptor): > 10 µM
Occ90 (Mus musculus [17]): 1.17 µM
half-life [18]: 330 min
Cmax [19]: 440 nM
AUC(0-inf) [20]: 6.35 µM·h
IC50 (Cytochrome P450 2C9): > 21 µM
Vd [21]: 9.7 L/kg
clearance [22]: 12 mL/min/kg
Vd [23]: 4.4 L/kg
Kp at 2 h [24]: 14
IC50 (Cytochrome P450 3A4): > 27 µM
AUC(0-inf) [25]: 1.84 µM·h
Drug uptake (Brain): 1.67 nmol/g
Occ90 (Mus musculus [26]): 2 nmol/g
Activity (Rattus norvegicus [27]): Active
Vd [28]: 6 L/kg
Occ90 (Mus musculus [29]): 2 nmol/g
IC50 (Histamine H2 receptor): > 10 µM
clearance [30]: 19 mL/min/kg
concentration at 2 h [31]: 1580 nM

Further molecules by falling IC50 (Histamine H3 receptor [1]), results first:

IC50 (Histamine H3 receptor [1]): 5.8 nM
SMILES: Cc1nc2ccccc2c(=O)n1-c1ccc(OCCCN2CCC(C)C2)cc1 (configuration not stated)
IC50 [2]: 6.4 µM

IC50 (Histamine H3 receptor [1]): 4.3 nM
SMILES: Cc1nc2ccccc2c(=O)n1-c1ccc(OCCCN2CCC[C@H]2C)cc1
IC50 [2]: > 10 µM

IC50 (Histamine H3 receptor [1]): 3.1 nM
SMILES: Cc1nc2ccccc2c(=O)n1-c1ccc(OCCCN2CCCCC2)cc1

IC50 (Histamine H3 receptor [1]): 2.2 nM
SMILES: Cc1nc2ccccc2c(=O)n1-c1ccc(OCCCN2CCC[C@@H]2C)cc1
IC50 [2]: 6 µM

IC50 (Histamine H3 receptor [1]): 0.72 nM
SMILES: Cc1nc2ccccc2c(=O)n1-c1ccc(OCCCN2CCC[C@H](C)C2)cc1
IC50 [2]: 5.3 µM
